Test results taken from BindingDB's records for doi:10.1016/j.ejmech.2017.02.004 (China Pharmaceutical University, 2017).

Legend:
[1] = Substrate activity at CPR in human L02 cells assessed as CPR-mediated one-electron reduction of compound by measuring cell growth inhibition treated for 24 hrs measured after 72 hrs by MTT assay
[2] = Substrate activity at NQO1 in human A549 cells assessed as NQO1-mediated two-electron reduction of compound by measuring cell growth inhibition treated for 24 hrs measured after 72 hrs by MTT assay
[3] = Substrate activity at NQO1 in human MCF7 cells assessed as NQO1-mediated two-electron reduction of compound by measuring cell growth inhibition treated for 24 hrs measured after 72 hrs by MTT assay
[4] = Substrate activity at NQO1 in human HCT116 cells assessed as NQO1-mediated two-electron reduction of compound by measuring cell growth inhibition treated for 24 hrs measured after 72 hrs by MTT assay
[5] = Substrate activity at NQO1 in human H1650 cells assessed as NQO1-mediated two-electron reduction of compound by measuring cell growth inhibition treated for 24 hrs measured after 72 hrs by MTT assay
[6] = Substrate activity at NQO1 in human H522 cells assessed as NQO1-mediated two-electron reduction of compound by measuring cell growth inhibition treated for 24 hrs measured after 72 hrs by MTT assay
[7] = Substrate activity at NQO1 in human HepG2 cells assessed as NQO1-mediated two-electron reduction of compound by measuring cell growth inhibition treated for 24 hrs measured after 72 hrs by MTT assay
[8] = Substrate activity at NQO1 in human H1299 cells assessed as NQO1-mediated two-electron reduction of compound by measuring cell growth inhibition treated for 24 hrs measured after 72 hrs by MTT assay

IC50 [1] [µM] | IC50 [2] [µM] | SMILES | further results
6.3 | 4.1 | Cc1ccc2c(c1)-c1occ(C)c1C(=O)C2=O | –
17 | 2.9 | Cc1coc2c1C(=O)C(=O)c1c(C)ccc(C)c1-2 | –
– | 3.3 | Cc1cc2c(cc1C)-c1occ(C)c1C(=O)C2=O | IC50 [3]: 2.4 µM; IC50 [4]: 4.4 µM; IC50 [5]: 9.3 µM; IC50 [6]: 4.8 µM; IC50 [7]: 2.5 µM; IC50 [8]: 4.9 µM
22 | 8.5 | Cc1ccc2c(c1)C(=O)C(=O)c1c(C)coc1-2 | –
– | 3.1 | Cc1cc2c(cc1C)-c1occc1C(=O)C2=O | –
25 | 3.1 | CCc1coc2c1C(=O)C(=O)c1cc(C)ccc1-2 | –
30 | – | COc1ccc2c(c1)C(=O)C(=O)C1=C2OC(C)C1(C)C (centres undefined) | –
– | 5.8 | COc1ccc2c(c1)C1=C(C(=O)C2=O)C(C)(C)C(C)O1 (centres undefined) | –
19 | – | COc1cccc2c1C1=C(C(=O)C2=O)C(C)(C)C(C)O1 (centres undefined) | –
